In the NIST ThermoML archive (doi:10.1016/j.jct.2005.10.004):
Where “and” joins values, the source holds several entries; their conditions need not be identical. Identical values can stand only once. Numbers after ± are expanded uncertainties.

Assay: xn = mol fraction of the nth substance listed
Conditions: Gas, Buoyancy - hydrostatic balance with magnetic suspension - one sinker

SMILES: N#N [nitrogen] + C
- mass density (299.91 K, 7416.3 kPa, x2 = 0.8): 59.8697 ± 0.015 kg/m3
- mass density (299.91 K, 7417.6 kPa, x2 = 0.8): 59.8813 ± 0.015 kg/m3
- mass density (299.91 K, 9999.1 kPa, x2 = 0.8): 82.4744 ± 0.02 kg/m3
- mass density (299.91 K, 10000 kPa, x2 = 0.8): 82.4859 ± 0.02 kg/m3
- mass density (299.91 K, 10001 kPa, x2 = 0.8): 82.4925 ± 0.02 kg/m3
- mass density (299.91 K, 12313 kPa, x2 = 0.8): 102.883 ± 0.024 kg/m3
- mass density (299.91 K, 12314 kPa, x2 = 0.8): 102.89 ± 0.024 kg/m3
- mass density (299.91 K, 14412 kPa, x2 = 0.8): 121.138 ± 0.029 kg/m3 and 121.127 ± 0.029 kg/m3
- mass density (299.91 K, 16342 kPa, x2 = 0.8): 137.386 ± 0.032 kg/m3
- mass density (299.91 K, 16343 kPa, x2 = 0.8): 137.395 ± 0.032 kg/m3
- mass density (299.92 K, 2421.7 kPa, x2 = 0.8): 18.4741 ± 0.006 kg/m3
- mass density (299.92 K, 4995 kPa, x2 = 0.8): 39.3048 ± 0.0097 kg/m3
- mass density (299.92 K, 9109.5 kPa, x2 = 0.8): 74.6412 ± 0.018 kg/m3
- mass density (299.99 K, 13043 kPa, x2 = 0.8998): 105.072 ± 0.026 kg/m3
- mass density (299.99 K, 15058 kPa, x2 = 0.8998): 122.114 ± 0.03 kg/m3 and 122.112 ± 0.03 kg/m3
- mass density (299.99 K, 17101 kPa, x2 = 0.8998): 138.717 ± 0.033 kg/m3 and 138.72 ± 0.033 kg/m3
- mass density (299.99 K, 19357 kPa, x2 = 0.8998): 155.97 ± 0.038 kg/m3
- mass density (299.99 K, 19358 kPa, x2 = 0.8998): 155.975 ± 0.038 kg/m3
- mass density (300 K, 899.61 kPa, x2 = 0.8998): 6.30257 ± 0.0049 kg/m3
- mass density (300 K, 2023 kPa, x2 = 0.8998): 14.4126 ± 0.0056 kg/m3
- mass density (300 K, 2023.1 kPa, x2 = 0.8998): 14.4136 ± 0.0056 kg/m3
- mass density (300 K, 2766.3 kPa, x2 = 0.8998): 19.9248 ± 0.0062 kg/m3
- mass density (300 K, 4003.3 kPa, x2 = 0.8998): 29.3523 ± 0.0076 kg/m3
- mass density (300 K, 4948.9 kPa, x2 = 0.8998): 36.7656 ± 0.0091 kg/m3
- mass density (300 K, 5998.7 kPa, x2 = 0.8998): 45.1981 ± 0.011 kg/m3
- mass density (300 K, 5998.9 kPa, x2 = 0.8998): 45.2004 ± 0.011 kg/m3
- mass density (300 K, 6904.7 kPa, x2 = 0.8): 55.4385 ± 0.014 kg/m3
- mass density (300 K, 6954.3 kPa, x2 = 0.8998): 53.0353 ± 0.013 kg/m3
- mass density (300 K, 8009.1 kPa, x2 = 0.8998): 61.855 ± 0.015 kg/m3
- mass density (300 K, 8009.7 kPa, x2 = 0.8998): 61.8592 ± 0.015 kg/m3
- mass density (300 K, 9029.6 kPa, x2 = 0.8998): 70.5133 ± 0.017 kg/m3 and 70.5136 ± 0.017 kg/m3
- mass density (300 K, 9030 kPa, x2 = 0.8998): 70.5158 ± 0.017 kg/m3
- mass density (300 K, 10050 kPa, x2 = 0.8998): 79.2704 ± 0.019 kg/m3
- mass density (300 K, 11034 kPa, x2 = 0.8998): 87.7596 ± 0.021 kg/m3
- mass density (300 K, 12063 kPa, x2 = 0.8998): 96.6441 ± 0.023 kg/m3
- mass density (300 K, 12064 kPa, x2 = 0.8998): 96.6562 ± 0.023 kg/m3
- mass density (300 K, 12996 kPa, x2 = 0.8998): 104.673 ± 0.025 kg/m3
- mass density (300 K, 14010 kPa, x2 = 0.8998): 113.319 ± 0.027 kg/m3
- mass density (300 K, 14012 kPa, x2 = 0.8998): 113.335 ± 0.027 kg/m3
- mass density (300 K, 16021 kPa, x2 = 0.8998): 130.057 ± 0.031 kg/m3
- mass density (300 K, 16023 kPa, x2 = 0.8998): 130.071 ± 0.031 kg/m3
- mass density (300 K, 17936 kPa, x2 = 0.8998): 145.268 ± 0.034 kg/m3
- mass density (300 K, 17939 kPa, x2 = 0.8998): 145.292 ± 0.034 kg/m3
- mass density (300 K, 20071 kPa, x2 = 0.8998): 161.173 ± 0.038 kg/m3
- mass density (300 K, 20074 kPa, x2 = 0.8998): 161.19 ± 0.038 kg/m3
- mass density (300.01 K, 19196 kPa, x2 = 0.8): 160.005 ± 0.037 kg/m3
- mass density (349.98 K, 2438.8 kPa, x2 = 0.8): 15.6874 ± 0.0057 kg/m3
- mass density (349.98 K, 4939.5 kPa, x2 = 0.8): 32.1898 ± 0.0082 kg/m3
- mass density (349.98 K, 17023 kPa, x2 = 0.8): 112.695 ± 0.028 kg/m3
- mass density (349.99 K, 2438.9 kPa, x2 = 0.8): 15.6871 ± 0.0057 kg/m3
- mass density (349.99 K, 4939.9 kPa, x2 = 0.8): 32.193 ± 0.0082 kg/m3
- mass density (349.99 K, 7493.5 kPa, x2 = 0.8): 49.3399 ± 0.012 kg/m3
- mass density (349.99 K, 7494.4 kPa, x2 = 0.8): 49.3451 ± 0.012 kg/m3
- mass density (349.99 K, 8821.7 kPa, x2 = 0.8): 58.3187 ± 0.015 kg/m3
- mass density (349.99 K, 8822.8 kPa, x2 = 0.8): 58.3243 ± 0.015 kg/m3
- mass density (349.99 K, 12241 kPa, x2 = 0.8): 81.3717 ± 0.021 kg/m3
- mass density (349.99 K, 12243 kPa, x2 = 0.8): 81.3884 ± 0.021 kg/m3
- mass density (349.99 K, 14938 kPa, x2 = 0.8): 99.2371 ± 0.024 kg/m3
- mass density (349.99 K, 14942 kPa, x2 = 0.8): 99.2671 ± 0.024 kg/m3
- mass density (349.99 K, 17029 kPa, x2 = 0.8): 112.731 ± 0.028 kg/m3
- mass density (350 K, 1986.4 kPa, x2 = 0.8998): 11.9478 ± 0.0054 kg/m3
- mass density (350 K, 1986.5 kPa, x2 = 0.8998): 11.9485 ± 0.0054 kg/m3
- mass density (350 K, 3975.2 kPa, x2 = 0.8998): 24.2393 ± 0.0067 kg/m3
- mass density (350 K, 5966.2 kPa, x2 = 0.8998): 36.8151 ± 0.0092 kg/m3
- mass density (350 K, 8018.7 kPa, x2 = 0.8998): 49.9871 ± 0.012 kg/m3
- mass density (350 K, 10026 kPa, x2 = 0.8998): 62.975 ± 0.015 kg/m3
- mass density (350 K, 12032 kPa, x2 = 0.8998): 75.9524 ± 0.019 kg/m3
- mass density (350 K, 12033 kPa, x2 = 0.8998): 75.9539 ± 0.019 kg/m3
- mass density (350 K, 13967 kPa, x2 = 0.8998): 88.3679 ± 0.022 kg/m3
- mass density (350 K, 13968 kPa, x2 = 0.8998): 88.373 ± 0.022 kg/m3
- mass density (350 K, 16066 kPa, x2 = 0.8998): 101.591 ± 0.025 kg/m3
- mass density (350 K, 16068 kPa, x2 = 0.8998): 101.601 ± 0.025 kg/m3
- mass density (350 K, 16070 kPa, x2 = 0.8998): 101.613 ± 0.025 kg/m3
- mass density (350 K, 16189 kPa, x2 = 0.8998): 102.36 ± 0.026 kg/m3
- mass density (350 K, 18024 kPa, x2 = 0.8998): 113.606 ± 0.028 kg/m3
- mass density (350 K, 19983 kPa, x2 = 0.8998): 125.244 ± 0.031 kg/m3
- mass density (350 K, 19984 kPa, x2 = 0.8998): 125.244 ± 0.031 kg/m3
- mass density (350.01 K, 8197.7 kPa, x2 = 0.8): 54.0918 ± 0.013 kg/m3
- mass density (350.01 K, 8197.9 kPa, x2 = 0.8): 54.0933 ± 0.013 kg/m3
- mass density (350.01 K, 10149 kPa, x2 = 0.8): 67.2887 ± 0.017 kg/m3
- mass density (350.01 K, 11859 kPa, x2 = 0.8): 78.8049 ± 0.02 kg/m3
- mass density (350.01 K, 11862 kPa, x2 = 0.8): 78.8216 ± 0.02 kg/m3
- mass density (400 K, 4571.9 kPa, x2 = 0.8): 25.5965 ± 0.0071 kg/m3
- mass density (400 K, 5986.1 kPa, x2 = 0.8998): 31.5654 ± 0.008 kg/m3
- mass density (400 K, 8029.2 kPa, x2 = 0.8998): 42.4672 ± 0.01 kg/m3
- mass density (400 K, 9750.2 kPa, x2 = 0.8): 54.7419 ± 0.014 kg/m3
- mass density (400 K, 12023 kPa, x2 = 0.8998): 63.6651 ± 0.015 kg/m3
- mass density (400 K, 13644 kPa, x2 = 0.8): 76.2876 ± 0.019 kg/m3
- mass density (400 K, 14030 kPa, x2 = 0.8998): 74.1643 ± 0.018 kg/m3
- mass density (400 K, 18095 kPa, x2 = 0.8998): 94.8699 ± 0.023 kg/m3
- mass density (400 K, 18098 kPa, x2 = 0.8998): 94.8835 ± 0.023 kg/m3
- mass density (400 K, 19369 kPa, x2 = 0.8998): 101.162 ± 0.025 kg/m3
- mass density (400.01 K, 2027.7 kPa, x2 = 0.8998): 10.5861 ± 0.0053 kg/m3
- mass density (400.01 K, 4038.9 kPa, x2 = 0.8998): 21.2078 ± 0.0063 kg/m3
- mass density (400.01 K, 4040.2 kPa, x2 = 0.8998): 21.2133 ± 0.0063 kg/m3
- mass density (400.01 K, 8029.4 kPa, x2 = 0.8998): 42.4641 ± 0.01 kg/m3
- mass density (400.01 K, 10035 kPa, x2 = 0.8998): 53.1468 ± 0.013 kg/m3 and 53.1474 ± 0.013 kg/m3
- mass density (400.01 K, 14024 kPa, x2 = 0.8998): 74.1363 ± 0.018 kg/m3
- mass density (400.01 K, 15973 kPa, x2 = 0.8998): 84.171 ± 0.021 kg/m3
- mass density (400.01 K, 15985 kPa, x2 = 0.8998): 84.2306 ± 0.021 kg/m3
- mass density (400.01 K, 19362 kPa, x2 = 0.8998): 101.12 ± 0.025 kg/m3
- mass density (400.07 K, 1968.6 kPa, x2 = 0.8): 10.9663 ± 0.0053 kg/m3
- mass density (400.07 K, 5054.8 kPa, x2 = 0.8): 28.3114 ± 0.0076 kg/m3
- mass density (400.07 K, 7579.8 kPa, x2 = 0.8): 42.5457 ± 0.01 kg/m3
- mass density (400.07 K, 7586.8 kPa, x2 = 0.8): 42.5825 ± 0.01 kg/m3
- mass density (400.07 K, 10122 kPa, x2 = 0.8): 56.8069 ± 0.015 kg/m3
- mass density (400.07 K, 10130 kPa, x2 = 0.8): 56.8516 ± 0.015 kg/m3
- mass density (400.07 K, 13112 kPa, x2 = 0.8): 73.3611 ± 0.02 kg/m3
- mass density (400.07 K, 13116 kPa, x2 = 0.8): 73.3802 ± 0.02 kg/m3
- mass density (400.07 K, 13262 kPa, x2 = 0.8): 74.1822 ± 0.02 kg/m3
- mass density (400.07 K, 15317 kPa, x2 = 0.8): 85.3273 ± 0.021 kg/m3
- mass density (400.07 K, 15324 kPa, x2 = 0.8): 85.3629 ± 0.021 kg/m3
- mass density (400.07 K, 17285 kPa, x2 = 0.8): 95.7881 ± 0.025 kg/m3
- mass density (400.07 K, 17324 kPa, x2 = 0.8): 95.9938 ± 0.025 kg/m3
